The values below come from patent US4943566A, “Novel 17-aryl-steroids” (Roussel Uclafi, priority 1987, dated 1990).

Assay [1] concerns the target T1, progesterone receptors of rabbit uterus (Oryctolagus cuniculus, UniProt P06186).
T1 construct: The first test was on the progesterone receptors of rabbit uterus; from tissue; host or cells: uterus of estradiol-treated immature rabbits, 105,000 g supernatant (cytosol)
T1 sequence (P06186 1-930): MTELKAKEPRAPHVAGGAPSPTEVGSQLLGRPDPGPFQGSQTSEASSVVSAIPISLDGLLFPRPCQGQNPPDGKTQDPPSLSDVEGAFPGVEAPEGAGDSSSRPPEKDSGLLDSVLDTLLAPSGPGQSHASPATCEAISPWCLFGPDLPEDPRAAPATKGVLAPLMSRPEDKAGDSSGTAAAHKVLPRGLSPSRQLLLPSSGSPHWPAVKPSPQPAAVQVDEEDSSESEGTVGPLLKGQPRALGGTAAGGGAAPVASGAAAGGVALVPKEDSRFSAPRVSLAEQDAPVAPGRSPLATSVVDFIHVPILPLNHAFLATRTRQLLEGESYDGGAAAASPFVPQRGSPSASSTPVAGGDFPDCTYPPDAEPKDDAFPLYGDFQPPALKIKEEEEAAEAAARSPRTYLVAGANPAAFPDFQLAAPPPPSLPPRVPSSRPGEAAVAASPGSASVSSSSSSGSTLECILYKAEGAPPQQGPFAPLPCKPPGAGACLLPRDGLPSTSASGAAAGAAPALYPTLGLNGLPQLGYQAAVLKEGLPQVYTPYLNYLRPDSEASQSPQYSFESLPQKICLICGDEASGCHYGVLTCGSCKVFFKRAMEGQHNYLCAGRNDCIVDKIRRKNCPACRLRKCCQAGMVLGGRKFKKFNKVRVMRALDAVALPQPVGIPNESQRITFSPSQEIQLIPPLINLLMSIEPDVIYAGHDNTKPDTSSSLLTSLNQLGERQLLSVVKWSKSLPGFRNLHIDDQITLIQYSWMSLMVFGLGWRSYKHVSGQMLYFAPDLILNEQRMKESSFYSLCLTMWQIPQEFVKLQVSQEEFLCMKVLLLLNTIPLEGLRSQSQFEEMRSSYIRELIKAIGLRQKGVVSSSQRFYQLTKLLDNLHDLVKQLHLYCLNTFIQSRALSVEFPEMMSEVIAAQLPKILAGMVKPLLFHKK
The assay can be described thus: Relative binding affinity (ARL), progesterone receptors of rabbit uterus. The settings on record: rabbit uterus cytosol, tritiated 17,21-dimethyl-19-nor-Δ4,9-pregnadiene-3,20-dione, cold reference hormone progesterone; for relative affinity of the bond (ARL), Progestogen, 2H: incubation 2H at 0° C.; for relative affinity of the bond (ARL), Progestogen, 24H: incubation 24H at 0° C. On the procedure:
The first test was on the progesterone receptors of rabbit uterus in which immature rabbits weighing about 1 kg received a cutaneous application of […] of estradiol and 5 days after treatment, the animals were sacrificed. The […] was removed, weighed and homogenized at 0° C. with a Potter Teflon-glass ina buffered solution. TS (Tris 10 mM, 0.25M Saccharose, HCl, pH 7.4) (1 g of tissue per 50 ml of TS). The homogenate was ultracentrifuged at 105,000 g×90 minutes at 0° C. The surnageant samples were incubated at a time at (t) 0° C. with a constant concentration (T) of tritiated product (R) which is 17,21-dimethyl-19-nor-Δ^4,9 -pregnadiene-3,20-dione in the presence of increasing concentrations from 0 to 2500×10^-9 M or cold R or cold progestenone or cold test compound. The concentration of bound tritiated R was measured for each incubate by absorption technique on dextran carbon.
(§1) The relative affinity of the bond (ARL) was calculated in the same for the receptors. One traced the following 2 curves: the percentage of bond tritiated hormone B/T as a logarithmic function of the concentration of the cold reference hormone and B/T as a logarithmic function of the concentration of the cold test compound. Using the equation [formula] B/T max.=% of bound tritiated hormone for one incubation of tritiated hormone at concentration (T)
(§2) B/T min.=% of bound tritiated hormone for one incubation of tritiated hormone at a concentration T in the presence of a great excess of cold hormone (2500×10^-9 M).
(§3) The intersections of I50 lines and the curves permit an evaluation of the hormone concentration of the cold reference (CH) and the cold test compound (CX) which inhibited by 50% the bounding of tritiated hormone to the receptor. The ARL of the test compound was determined by the equation. [formula] and the following results were obtained.

Assay [2] addresses T2, glucocorticoid receptor, rat thymus (Rattus norvegicus, UniProt P06536).
T2 construct: The second test was a glucocrticoid receptor test on rat thymus; from tissue; host or cells: thymus of adrenalectomized male Sprague Dawley EOPS rats, 105,000 g supernatant (cytosol)
T2 sequence (P06536 1-795): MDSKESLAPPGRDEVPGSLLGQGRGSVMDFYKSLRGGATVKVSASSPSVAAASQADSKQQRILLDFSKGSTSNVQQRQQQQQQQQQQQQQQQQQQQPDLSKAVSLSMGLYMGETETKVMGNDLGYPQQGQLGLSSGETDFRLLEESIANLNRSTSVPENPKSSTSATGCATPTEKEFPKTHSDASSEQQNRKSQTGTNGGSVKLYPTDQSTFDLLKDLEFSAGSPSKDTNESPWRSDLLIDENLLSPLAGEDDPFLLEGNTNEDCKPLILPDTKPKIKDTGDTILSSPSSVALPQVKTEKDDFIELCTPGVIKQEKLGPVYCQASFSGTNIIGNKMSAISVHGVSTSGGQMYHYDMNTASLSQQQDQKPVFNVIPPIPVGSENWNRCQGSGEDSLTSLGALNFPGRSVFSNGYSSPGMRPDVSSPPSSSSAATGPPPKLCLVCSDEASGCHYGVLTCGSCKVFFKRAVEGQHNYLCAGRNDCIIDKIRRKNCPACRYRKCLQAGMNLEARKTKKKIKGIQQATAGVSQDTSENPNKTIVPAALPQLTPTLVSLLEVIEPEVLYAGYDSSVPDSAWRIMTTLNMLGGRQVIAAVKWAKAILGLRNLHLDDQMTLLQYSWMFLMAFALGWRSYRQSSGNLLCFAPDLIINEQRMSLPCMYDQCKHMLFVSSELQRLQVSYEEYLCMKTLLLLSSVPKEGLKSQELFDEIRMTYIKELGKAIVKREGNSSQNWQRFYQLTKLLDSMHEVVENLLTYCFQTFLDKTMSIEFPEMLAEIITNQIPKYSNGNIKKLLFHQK
The assay can be described thus: Relative binding affinity (ARL), glucocorticoid receptor of rat thymus. The settings on record: rat thymus cytosol, tritiated dexamethasone, cold reference dexamethasone; for relative affinity of the bond (ARL), Glucocorticoid, 2H: incubation 2H at 0° C.; for relative affinity of the bond (ARL), Glucocorticoid, 24H: incubation 24H at 0° C. The protocol: The second test was a glucocrticoid receptor test on rat thymus in which male rats of the Sprague Dawley EOPS strain weighing 160 to 200 g were surrenalectomized. 4 to 8 days after this ablation, the animals were killed and the thymus was removed and homogenized at 0° C. in a buffered TS solution. (Tris 10 mM, 0.25M saccharose, 2 mM dithiothreitol, HCl pH 7.4) with a Potter tetrafluoroethylene-glass (1 g of tissue per 10 ml/TS). The homogenate was ultracentrifuged at 105,000 for 90 minutes at 0° C. and the surnageant samples were incubated at 0° C. for a time t with a constant concentration T of tritiated dexamethasone in the presence of increasing concentrations (0-2500×10^-9 M) or cold dexamethasone or cold test compound. The concentration B of bound tritiated dexamethasone was measured for each incubate by carbon-dextran absorption technique.
as §1, §2, §3

Turning to `COc1ccccc1[C@]1(O)CC[C@H]2[C@@H]3CCC4=CC(=O)CCC4=C3[C@@H](c3ccc(N(C)C)cc3)C[C@@]21C` [Example 11 (Product A), 11β-(4-dimethylamino-phenyl)-17α-(2-methoxy-phenyl)-Δ^4,9-estradiene-17β-ol-3-one], in assay [1], the “relative affinity of the bond (ARL), Progestogen, 2H” value (“relative affinity … Progestogen, 2H” below) is recorded as 38 and the “relative affinity of the bond (ARL), Progestogen, 24H” value (“relative affinity … Progestogen, 24H” for short) is recorded as 230. Further, in assay [2], the “relative affinity of the bond (ARL), Glucocorticoid, 2H” value (shortened to “relative affinity … Glucocorticoid, 2H”) is 56 and the “relative affinity of the bond (ARL), Glucocorticoid, 24H” value (from here on “relative affinity … Glucocorticoid, 24H”) was found to be 45.
As for `CN(C)c1ccc([C@H]2C[C@@]3(C)[C@@H](CC[C@@]3(O)c3cccc(O)c3)[C@@H]3CCC4=CC(=O)CCC4=C32)cc1` [Example 13 (Product A), 11β-(4-dimethylamino-phenyl)-17α-(3-hydroxy-phenyl)-Δ^4,9-estradiene-17β-ol-3-one], in assay [1], the “relative affinity … Progestogen, 2H” value is given as 34 and the “relative affinity … Progestogen, 24H” value turned out to be 122. In assay [2], the “relative affinity … Glucocorticoid, 2H” value is on record as 153 and the “relative affinity … Glucocorticoid, 24H” value came to 145.
On to `COc1cccc([C@]2(O)CC[C@H]3[C@@H]4CCC5=CC(=O)CCC5=C4[C@@H](c4ccc(N(C)C)cc4)C[C@@]32C)c1` [Example 12 (Product A), 11β-(4-dimethylamino-phenyl)-17α-(3-methoxy-phenyl)-Δ^4,9-estradiene-17β-ol-3-one], for which, in assay [1], the “relative affinity … Progestogen, 2H” value was 24 and the “relative affinity … Progestogen, 24H” value came to 131. Also, in assay [2], the “relative affinity … Glucocorticoid, 2H” value came to 90 and the “relative affinity … Glucocorticoid, 24H” value stood at 76.
Turning to `CN(C)c1ccc([C@H]2C[C@@]3(C)[C@@H](CC[C@@]3(O)c3ccccc3)[C@@H]3CCc4cc(O)ccc4[C@H]32)cc1` [Example 14, 11β-(4-dimethylamino-phenyl)-17α-phenyl-Δ^1,3,5(10) -estratriene-3,17β-diol], in assay [1], the “relative affinity … Progestogen, 2H” value is 5 and the “relative affinity … Progestogen, 24H” value is reported as 67. Besides, in assay [2], the “relative affinity … Glucocorticoid, 2H” value came to 98 and the “relative affinity … Glucocorticoid, 24H” value stood at 129.
For `CN(C)c1ccc([C@H]2C[C@@]3(C)[C@@H](CC[C@@]3(O)c3ccccc3O)[C@@H]3CCC4=CC(=O)CCC4=C32)cc1` [Example 10, 11β-(4-dimethylamino-phenyl)-17α-(2-hydroxy-phenyl)-Δ^4,9-estradiene-17β-ol-3-one], in assay [1], the “relative affinity … Progestogen, 2H” value came out at 47 and the “relative affinity … Progestogen, 24H” value is 189. Further, in assay [2], the “relative affinity … Glucocorticoid, 2H” value stood at 106 and the “relative affinity … Glucocorticoid, 24H” value was found to be 112.
`COc1ccc([C@H]2C[C@@]3(C)[C@@H](CC[C@@]3(O)c3ccc(OC)cc3)[C@@H]3CCC4=CC(=O)CCC4=C32)cc1` [Example 1, 11β,17α-bis-(4-methoxy-phenyl)-Δ^4,9-estradiene-17β-ol-3-one]: in assay [1], the “relative affinity … Progestogen, 2H” value came to 48 and the “relative affinity … Progestogen, 24H” value was 259. Besides, in assay [2], the “relative affinity … Glucocorticoid, 2H” value is 94 and the “relative affinity … Glucocorticoid, 24H” value came to 68.
For the molecule `COc1ccccc1[C@@]1(O)CC[C@H]2[C@@H]3CCC4=CC(=O)CCC4=C3[C@@H](c3ccc(N(C)C)cc3)C[C@@]21C` [Example 11 (Product B), 11β-(4-dimethylamino-phenyl)-17β-(2-methoxy-phenyl)-Δ^4,9-estradiene-17α-ol-3-one], in assay [1], the “relative affinity … Progestogen, 2H” value turned out to be 12 and the “relative affinity … Progestogen, 24H” value is 49. Also, in assay [2], the “relative affinity … Glucocorticoid, 2H” value is given as 47 and the “relative affinity … Glucocorticoid, 24H” value was 40.
For `CN(C)c1ccc([C@H]2C[C@@]3(C)[C@@H](CC[C@@]3(O)c3ccc(O)cc3)[C@@H]3CCC4=CC(=O)CCC4=C32)cc1` [Example 6, 11β-(4-dimethylamino-phenyl)-17α-(4-hydroxy-phenyl)-Δ^4,9-estradiene-17β-ol-3-one] the same measures were 33, 35, 133 and 97.
For `Cc1ccc([C@]2(O)CC[C@H]3[C@@H]4CCC5=CC(=O)CCC5=C4[C@@H](c4ccc(N(C)C)cc4)C[C@@]32C)cc1` [Example 9, 11β-(4-dimethylamino-phenyl)-17α-(4-methyl-phenyl)-Δ^4,9-estradiene-17β-ol-3-one] the same measures were 22, 110, 39 and 40.
For `CN(C)c1ccc([C@H]2C[C@@]3(C)[C@@H](CC[C@]3(O)c3cccc(O)c3)[C@@H]3CCC4=CC(=O)CCC4=C32)cc1` [Example 13 (Product B), 11β-(4-dimethylaminophenyl)-17β-(3-hydroxy-phenyl)-Δ^4,9-estradiene-17α-ol-3-one] the same measures were 1,9, 1,7, 76 and 63.
